Assay results as given in PMC12738788, “Structural snapshots of Pseudomonas aeruginosa LptB2FG and LptB2FGC reveal insights into lipopolysaccharide recognition and transport” (Nature Communications, 2025).
“And” between values parts separate entries of the source, which are not always exact repeats. Identical values can stand only once.

What was measured:
P. aeruginosa LptB2FGC [1] = test: Native MS: CDL added to LptB2FG(C):Re-LPS complex (competition); assay type: binding, Pseudomonas aeruginosa; details: Re-LPS 1 uM + CDL 2.5 uM
Description: In particular, we chose 14:0 CDL to be consistent with the 14 carbon lipid tails of Re-LPS, and incubated this with the LptB2FG/LptB2FGC complex, we could observe ~ 50% of LptB2FGC bound to CDL at 2.5 μM concentration (Fig. 5b). Apparent KD calculation indicated a similar trend when comparing LptB2FG and LptB2FGC interaction with CDL to that of LPS (Supplementary Fig. S18). […] We set out to test whether CDL influences LPS binding to LptB2FGC. To this end, we added increasing concentrations of CDL (1.0 to 5 μM) to a solution containing LptB2FG(C):Re-LPS complex (Supplementary Fig. S19).
Purified LptB2FG(C) was buffer exchanged into MS Buffer (200 mM ammonium acetate + 0.04% (w/v) [G1]-OGD) using a centrifugal buffer exchange device (Micro Bio-Spin 6, Bio-Rad) as previously described. The freshly buffer-exchanged protein was kept on ice, with protein concentration measured as before. […] Data were analysed using the Xcalibur 3.0 (Thermo Scientific), NaViA[64], and UniDec (www.unidec.chem.ox.ac.uk)[65] software packages. […]
Peak intensities were extracted using UniDec, and the ratios of the intensity of the ligand bound peak versus the total intensity of all observed species were calculated. The apparent dissociation constant (KD) values for individual lipid-binding events to LptB2FG and LptB2FGC were calculated through a sequential lipid-binding model using a previously described Python script. […]

P. aeruginosa LptB2FGC [2] = test: Native MS lipid binding to LptB2FGC; set-up: species or system Pseudomonas aeruginosa; details: for 1x lipid_Ratio / 2x lipid_Ratio / 3x lipid_Ratio / 4x lipid_Ratio / Apo_Ratio: 3 μM protein
Description: (§1) Purified LptB2FG(C) was buffer exchanged into MS Buffer (200 mM ammonium acetate + 0.04% (w/v) [G1]-OGD) using a centrifugal buffer exchange device (Micro Bio-Spin 6, Bio-Rad) as previously described. The freshly buffer-exchanged protein was kept on ice, with protein concentration measured as before. The protein samples were diluted as desired in 200 mM ammonium acetate buffer with detergent as necessary and loaded into a gold-coated capillary Clark borosilicate capillary (Harvard Apparatus) prepared in the laboratory. The experiments were performed using a Q Exactive UHMR Hybrid Quadrupole-Orbitrap mass spectrometer (Thermo Fisher Scientific). Typically, 2 μl of buffer-exchanged protein solution was electrosprayed in negative polarity from in-house prepared gold-coated borosilicate capillaries. The instrument parameters used for data collection were: capillary voltage 1.1 kV, S-lens RF 100%, quadrupole selection from 1000 to 20,000 m/z range, HCD collision energy 200–300 V, source fragmentation 0 V, in-source trapping 200–300 V in negative mode. The ion transfer optics was set as follows: injection flatapole − 5 V, inter-flatapole lens − 4 V, bent flatapole − 2 V, transfer multipole 0 V. The resolution of the instrument was 8750 at m/z = 200 (transient time of 64 ms), argon pressure in the HCD cell was maintained at approximately at 8 × 10^–10 mbar and source temperature was kept at 200 °C. The noise level was set at 3 rather than the default value of 4.64. Calibration of the instruments was performed using 10 mg/ml solution of caesium iodide in water. Where required, baseline subtraction was performed to achieve a better-quality mass spectrum. Data were analysed using the Xcalibur 3.0 (Thermo Scientific), NaViA[64], and UniDec (www.unidec.chem.ox.ac.uk)[65] software packages.
(§2) Lipid and nucleotide binding experiments were performed by diluting them in 200 mM ammonium acetate supplemented with 0.04% [G1]-OGD. Native MS experiments were performed at a total LptB2FG(C) protein concentration of 3 μM.
(§3) Peak intensities were extracted using UniDec, and the ratios of the intensity of the ligand bound peak versus the total intensity of all observed species were calculated. The apparent dissociation constant (KD) values for individual lipid-binding events to LptB2FG and LptB2FGC were calculated through a sequential lipid-binding model using a previously described Python script. When necessary, a Welch’s T-test was used to evaluate statistically significant differences and data were plotted using GraphPad Prism 8.0. Error bars in the plots indicate standard deviation, and all experiments were performed in triplicate (n = 3).

P. aeruginosa LptB2FG = test: Native MS lipid binding to LptB2FG; set-up: species or system Pseudomonas aeruginosa; details: for 1x lipid_Ratio / 2x lipid_Ratio / 3x lipid_Ratio / 4x lipid_Ratio / Apo_Ratio: 3 μM protein
Description: as §1, §2, §3

[3] = biological target: P. aeruginosa LptB with a C-terminal 6 x His-tag (P. aeruginosa); test: non-reducing SDS-PAGE; SDS-PAGE gel of the purified complex, run under non-reducing conditions
[4] = biological target: P. aeruginosa LptB with a C-terminal 6 x His-tag (P. aeruginosa); test: cryo-EM structure; LptB2FG/LptB2FGC co-expressed, co-purified and delipidated, reconstituted in MSP1D1 nanodiscs with E. coli total extract lipid; 20 mM Tris-HCl pH 7.5, 100 mM NaCl; substrate-free; three LptB2FG and two LptB2FGC conformations from one sample
[5] = biological target: P. aeruginosa LptB with a C-terminal 6 x His-tag (P. aeruginosa); test: native MS; complex co-expressed and purified by the His tag on LptB (IMAC, SEC), exchanged into 200 mM ammonium acetate + 0.04% (w/v) [G1]-OGD; negative polarity
[6] = first lipid-binding event, sequential lipid-binding model, native MS, read-out: apparent dissociation constant KD(1)

## CCCCCCCCCCCCCC(=O)OC[C@H](COP(=O)(O)OCC(O)COP(=O)(O)OC[C@@H](COC(=O)CCCCCCCCCCCCC)OC(=O)CCCCCCCCCCCCC)OC(=O)CCCCCCCCCCCCC (stereo partly shown) [CDL, 1’,3’-bis[1,2-dimyristoyl-sn-glycero-3-phospho]-glycerol]
P. aeruginosa LptB2FGC [1]
  1x CDL: 0.1327 and 0.2003 and 0.1609
  2x CDL: 0
P. aeruginosa LptB2FGC [2]; 0.25 μM lipid
  1x lipid_Ratio: 0.1955 and 0.2067 and 0.2427
  2x lipid_Ratio: 0
  3x lipid_Ratio: 0
  4x lipid_Ratio: 0
  Apo_Ratio: 0.8045 and 0.7933 and 0.7573
P. aeruginosa LptB2FGC [2]; 0.5 μM lipid
  1x lipid_Ratio: 0.236 and 0.2635 and 0.2763
  2x lipid_Ratio: 0
  3x lipid_Ratio: 0
  4x lipid_Ratio: 0
  Apo_Ratio: 0.764 and 0.7365 and 0.7237
P. aeruginosa LptB2FGC [2]; 1 μM lipid
  1x lipid_Ratio: 0.2764 and 0.2872 and 0.3074
  2x lipid_Ratio: 0.0846 and 0.07455 and 0.1186
  3x lipid_Ratio: 0
  4x lipid_Ratio: 0
  Apo_Ratio: 0.639 and 0.6382 and 0.574
P. aeruginosa LptB2FGC [2]; 1.25 μM lipid
  1x lipid_Ratio: 0.3498 and 0.3261 and 0.3766
  3x lipid_Ratio: 0
  4x lipid_Ratio: 0
  Apo_Ratio: 0.545 and 0.5422 and 0.5586
P. aeruginosa LptB2FGC [2]; 2.5 μM lipid
  1x lipid_Ratio: 0.3774 and 0.3613 and 0.3792
  2x lipid_Ratio: 0.1928 and 0.1837 and 0.1898
  3x lipid_Ratio: 0.07276 and 0.06329 and 0.08767
  4x lipid_Ratio: 0
  Apo_Ratio: 0.3571 and 0.3916 and 0.3434
P. aeruginosa LptB2FGC [2]; 5 μM lipid
  1x lipid_Ratio: 0.2708 and 0.2286 and 0.261
  2x lipid_Ratio: 0.3089 and 0.3049 and 0.3123
  3x lipid_Ratio: 0.1993 and 0.2344 and 0.2124
  4x lipid_Ratio: 0.08447 and 0.1259 and 0.09283
  Apo_Ratio: 0.1365 and 0.1062 and 0.1214
P. aeruginosa LptB2FGC [2]; [6]
  Kd: 3.07 ± 0.09 µM
P. aeruginosa LptB2FG; 0.25 μM lipid
  1x lipid_Ratio: 0.1443 and 0.1705 and 0.1602
  2x lipid_Ratio: 0
  3x lipid_Ratio: 0
  4x lipid_Ratio: 0
  Apo_Ratio: 0.8557 and 0.8295 and 0.8398
P. aeruginosa LptB2FG; 0.5 μM lipid
  1x lipid_Ratio: 0.199 and 0.1911 and 0.2318
  2x lipid_Ratio: 0
  3x lipid_Ratio: 0
  4x lipid_Ratio: 0
  Apo_Ratio: 0.801 and 0.8089 and 0.7682
P. aeruginosa LptB2FG; 1 μM lipid
  1x lipid_Ratio: 0.2261 and 0.2185 and 0.1754
  3x lipid_Ratio: 0
  4x lipid_Ratio: 0
  Apo_Ratio: 0.7468 and 0.7118 and 0.7769
P. aeruginosa LptB2FG; 1.25 μM lipid
  1x lipid_Ratio: 0.2786 and 0.2616 and 0.2584
  2x lipid_Ratio: 0.04833 and 0.04258 and 0.08199
  3x lipid_Ratio: 0
  4x lipid_Ratio: 0
  Apo_Ratio: 0.6731 and 0.6958 and 0.6596
P. aeruginosa LptB2FG; 2.5 μM lipid
  1x lipid_Ratio: 0.3458 and 0.3529 and 0.3561
  2x lipid_Ratio: 0.07878 and 0.07812 and 0.08017
  3x lipid_Ratio: 0
  4x lipid_Ratio: 0
  Apo_Ratio: 0.5754 and 0.569 and 0.5638
P. aeruginosa LptB2FG; 5 μM lipid
  1x lipid_Ratio: 0.4041 and 0.3985 and 0.4061
  2x lipid_Ratio: 0.2783 and 0.2976 and 0.263
  3x lipid_Ratio: 0.07217 and 0.104 and 0.096
  4x lipid_Ratio: 0
  Apo_Ratio: 0.2455 and 0.1999 and 0.2349
P. aeruginosa LptB2FG; [6]
  Kd: 4.8 ± 0.14 µM

## CCCCCCCCCCC[C@@H](O)CC(=O)N[C@H]1[C@H](OC[C@H]2O[C@H](OP(=O)(O)O)[C@H](NC(=O)C[C@H](O)CCCCCCCCCCC)[C@@H](OC(=O)C[C@H](O)CCCCCCCCCCC)[C@@H]2O)O[C@H](CO)[C@@H](OP(=O)(O)O)[C@@H]1OC(=O)C[C@H](O)CCCCCCCCCCC [lipid IVA]
P. aeruginosa LptB2FGC [2]; pre-delipidation, ClearColi-expressed complex, with 2× adducts
  lipid IVA occupancy of LptB2FGC: ~ 80%
P. aeruginosa LptB2FG; pre-delipidation, ClearColi-expressed complex, lipid IVA sole LPS-related species
  apo fraction of LptB2FG: ~ 60%

## P. aeruginosa LptB with a C-terminal 6 x His-tag (natural protein)
[3]
  stoichiometry N: 2
[4]
  stoichiometry N: 2
[5]
  stoichiometry N: 2
